Reference: patent US20260272964A1, “PENTAGALLOYL GLUCOSE DERIVED FROM SCHINUS PLANTS AND METHODS OF USE” (Emory University, priority 2020, published 2026)
Several values for one entry are separate records, joined by “and”; a condition that tells them apart may be missing. Identical values can stand only once. Like-named read-outs stand apart in the source and are kept apart here.

Tests used:
[1] = in vivo; cited from earlier work
[2] = tested on: Acinetobacter baumannii; assay: Growth inhibition of Acinetobacter baumannii (CRAB and susceptible strains); format: cell-based; details: for IC50 / MIC: Acinetobacter baumannii
Protocol: A natural products library was screened for growth inhibition of CRAB. Lead extracts were then tested in serial dilution and nine extracts from seven species were chosen for further study based on activity. Extract 429, made from the leaves of Schinus terebinthifolia, underwent bioassay-guided fractionation for growth inhibition (FIG. 1).
A library of botanical extracts generated from plants was screened for growth inhibition of CRAB. […] Bioassay-guided fractionation lead to the isolation of pentagalloyl glucose (PGG), a bioactive gallotannin. […] Topical applications of PGG, such as wound rinses and dressings, are contemplated. […]

[3] = tested on: A. baumannii; assay: Growth inhibition assays with media supplementation; format: cell-based, Acinetobacter baumannii
Protocol: PGG antibacterial activity may be attributed to its chelation of iron. One can use a colorimetric assay to quantify binding of free iron by PGG. One can perform bioassays with iron supplementation and 2,2′-dipyridyl, a known iron chelator, as a control. To elucidate potential mechanisms of action of PGG, A. baumannii growth inhibition and time-kill assays were carried out with various supplements in combination with PGG: 0.02% oleic acid, 0.02% polysorbate 80, 1 mM iron (II) sulfate, and 1 mM iron (III) sulfate. […] Furthermore, PGG combined with oleic acid, polysorbate 80, and iron (II) sulfate treatments had roughly tenfold, 100-fold, and 1,000-fold higher CFU/mL measurements, respectively, than PGG alone at the 24 h timepoint.

[4] = tested on: A. baumannii AB5075; assay: Restoration assay (iron addition to PGG-treated wells); format: cell-based, Acinetobacter baumannii; details: AB5075, 1 mM iron (II) or iron (III) sulfate on PGG-treated wells, 24-48 h
Protocol: To test for the restoration of bacterial growth after iron addition, iron (II) and iron (III) sulfate were spread at concentrations of 1 mM on PGG-treated A. baumannii AB5075 wells that had no visible colonies after 24 h of incubation. Immediately after addition of iron to the agar, all wells containing PGG obtained a purple color, increasing in darkness with increasing PGG concentration.

[5] = tested on: ESKAPE pathogens; assay: Growth inhibition of a panel of ESKAPE pathogens (overall); format: cell-based
Protocol: PGG was also tested against a panel of other ESKAPE pathogens: Enterococcus faecium, Staphylococcus aureus, Klebsiella pneumoniae, Pseudomonas aeruginosa, and Enterobacter cloacae.

O=C(OC[C@H]1O[C@@H](OC(=O)c2cc(O)c(O)c(O)c2)[C@H](OC(=O)c2cc(O)c(O)c(O)c2)[C@@H](OC(=O)c2cc(O)c(O)c(O)c2)[C@@H]1OC(=O)c1cc(O)c(O)c(O)c1)c1cc(O)c(O)c(O)c1 [PGG, [(2R,3R,4S,5R,6S)-3,4,5,6-tetrakis[(3,4,5-trihydroxybenzoyl)oxy]oxan-2-yl]methyl 3,4,5-trihydroxybenzoate]
> 256 µg/mL: MIC ([2]; ATCC17978, strain ATCC17978, read-out: PGG MIC) | MIC ([2]; fourteen strains, read-out: MICs of fourteen of the A. baumannii strains tested) | MIC ([2]; strain AR Bank #0033, read-out: PGG MIC) | MIC ([2]; strain AR Bank #0036, read-out: PGG MIC) | MIC ([2]; strain AR Bank #0037, read-out: PGG MIC) | MIC ([2]; strain AR Bank #0070, read-out: PGG MIC) | MIC ([2]; strain AR Bank #0102, read-out: PGG MIC) | MIC ([2]; strain AR Bank #0274, read-out: PGG MIC) | MIC ([2]; strain AR Bank #0275, read-out: PGG MIC) | MIC ([2]; strain AR Bank #0277, read-out: PGG MIC) | MIC ([2]; strain AR Bank #0278, read-out: PGG MIC) | MIC ([2]; strain AR Bank #0282, read-out: PGG MIC) | MIC ([2]; strain AR Bank #0283, read-out: PGG MIC) | MIC ([2]; strain AR Bank #0295, read-out: PGG MIC) | MIC ([2]; strain Naval-81, read-out: PGG MIC)
64 µg/mL: MIC ([2]; A. baumannii, strain not given, read-out: MIC) | IC50 ([2]; strain AR Bank #0274, read-out: PGG IC50) | MIC ([2]; strain AR Bank #0284, read-out: PGG MIC)
>256 µg/mL: PGG MIC ([2]; strain ATCC17978)
8 µg/mL: IC50 ([2]; A. baumannii strains tested in this study, read-out: median IC50 for growth inhibition) | IC50 ([2]; ATCC17978, strain ATCC17978, read-out: PGG IC50) | IC50 ([2]; strain AR Bank #0033, read-out: PGG IC50) | IC50 ([2]; strain AR Bank #0035, read-out: PGG IC50) | IC50 ([2]; strain AR Bank #0037, read-out: PGG IC50) | IC50 ([2]; strain AR Bank #0045, read-out: PGG IC50) | IC50 ([2]; strain AR Bank #0102, read-out: PGG IC50) | IC50 ([2]; strain AR Bank #0273, read-out: PGG IC50) | IC50 ([2]; strain AR Bank #0275, read-out: PGG IC50) | IC50 ([2]; strain AR Bank #0277, read-out: PGG IC50) | IC50 ([2]; strain AR Bank #0278, read-out: PGG IC50) | IC50 ([2]; strain AR Bank #0281, read-out: PGG IC50) | IC50 ([2]; strain AR Bank #0283, read-out: PGG IC50) | IC50 ([2]; strain AR Bank #0284, read-out: PGG IC50) | IC50 ([2]; strain AR Bank #0295, read-out: PGG IC50) | IC50 ([2]; strain AR Bank #0299, read-out: PGG IC50) | IC50 ([2]; strain AR Bank #0300, read-out: PGG IC50) | IC50 ([2]; strain OIFC143, read-out: PGG IC50)
16 µg/mL: IC50 ([2]; strain AB5075, read-out: PGG IC50) | IC50 ([2]; strain AR Bank #0036, read-out: PGG IC50) | IC50 ([2]; strain AR Bank #0070, read-out: PGG IC50) | IC50 ([2]; strain AR Bank #0282, read-out: PGG IC50) | IC50 ([2]; strain NR-9667, read-out: PGG IC50) | IC50 ([2]; strain Naval-81, read-out: PGG IC50)
identical growth inhibition: growth inhibition compared to PGG isolated from S. terebinthifolia ([2]; A. baumannii)
128 µg/mL: MIC ([2]; strain AR Bank #0045, read-out: PGG MIC) | MIC ([2]; strain AR Bank #0273, read-out: PGG MIC) | MIC ([2]; strain AR Bank #0281, read-out: PGG MIC) | MIC ([2]; strain AR Bank #0299, read-out: PGG MIC) | MIC ([2]; strain OIFC143, read-out: PGG MIC)
≥ 64 µg/mL: concentrations with activity against a wide range of pathogenic bacteria [5]
85-95%: inhibition at which dose-response curves level off ([2]; A. baumannii, high concentrations)
can be attenuated by addition of iron: restoration of bacterial growth after iron addition [4]
attenuated growth inhibition: change of growth inhibition on supplementation ([3]; PGG 256-2 μg/mL with 1 mM iron (II) sulfate) | change of growth inhibition on supplementation ([3]; PGG 256-2 μg/mL with 1 mM iron (III) sulfate) | change of growth inhibition on supplementation ([3]; PGG 256-2 μg/mL with 0.02% polysorbate 80)
no change in activity: change of growth inhibition on supplementation ([3]; PGG 256-2 μg/mL with 0.02% oleic acid)
256 µg/mL: MIC ([2]; strain AB5075, read-out: PGG MIC) | MIC ([2]; strain AR Bank #0035, read-out: PGG MIC) | MIC ([2]; strain AR Bank #0300, read-out: PGG MIC) | MIC ([2]; strain NR-9667, read-out: PGG MIC)
most active constituent: activity in bioassay-guided fractionation for growth inhibition ([2]; CRAB, fractions of extract 429)
8 µg/mL to 64 µg/mL and 8.5 µM to 68 µM: IC50 ([2]; read-out: IC50s, range over strains, one susceptible and 23 drug resistant strains (19 CRAB))
low oral bioavailability: oral bioavailability [1]
